Counter-ions that a name gives are not always drawn. Like-named read-outs stand apart in the source and are kept apart here.

In one series the test system is 143B cells. The series is described as follows: CCK-8 anti-proliferative assay, 143B. The conditions noted are these: Homo sapiens, 143B, co-incubated 48 h, read-out: Anti-proliferative activity (IC50 ± standard deviation) 143B. The format is cell-based, human. The gist of the method:
(§1)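 Compound was added at final concentrations of 1 to 30 μM, in triplicate, to cells at 70% confluence (5,000 per well seeded). After co-incubation, CCK-8 was added for 1–4 h depending on the cell line. Inhibition from OD450 relative to untreated cells gave IC50.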
A general note: Formazan colour is commonly taken as a measure of viable cells.

The next series concerns MG-63 cells. Nature of the series: CCK-8 anti-proliferative assay, MG-63. The format is cell-based, human. The conditions noted are these: Homo sapiens, MG-63, co-incubated 48 h, read-out: Anti-proliferative activity (IC50 ± standard deviation) MG-63. The essentials: as §1
For another series, the system named is human osteosarcoma 143B. The series is described as follows: 143B tumor-bearing nude mouse model. The conditions noted are these: 40 mg/kg oral gavage, every 2 d, 42 d. The series is classed as in vivo, nude mice. On the procedure:
Experimental method: bladder cancer J82 cells in logarithmic growth phase were trypsinized, collected, and then centrifuged, and resuspended in serum-free DMEM medium after discarding an original medium. Cell density was adjusted, and 0.2 mL cell suspension was subcutaneously inoculated into 5-week-old BALB/c-nu mice (sex-balanced, 18-20 g) under a laminar flow clean bench. Post-inoculation, bleeding at injection sites was monitored. When tumors reached 50-80 mm^3, nude mice with good tumor growth status were randomized into 5 groups (n=6/group) for intraperitoneal administration. Tumor volume and body weight were recorded on Day 0. […] Dosing occurred every 2 d for 42 d. After administering the drug, mice were monitored for diarrhea, anorexia, lethargy, and allergic reactions (e.g., pruritus). The body weight of nude mice was measured every 2 days, and the long and short diameters of the tumors in nude mice were measured by using a vernier caliper, then the recording was finished.
Construction of the human osteosarcoma 143B tumor-bearing nude mouse model followed similar procedures, with identical dosing frequency but administration route changed to oral gavage. Specifically: When tumors reached 60-90 mm^3, mice were randomized into 4 groups (n=6). […]

For series [1] the following is noted: background; cited from earlier work.
The test system of a further series is J82 cells. The series is described as follows: CCK-8 anti-proliferative assay, J82. The format is cell-based, human. The note with it: Homo sapiens, J82. The gist of the method:
(§2)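 Cells seeded at 5,000/well and grown at 37° C., 5% CO2 to 70% confluency, then treated with compound at final 1, 2, 4, 6, 8, 12, 16, 24 and 30 μM in triplicate.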

Series [2] has as its system UM-UC-3 cells. Nature of the series: CCK-8 anti-proliferative assay, UM-UC-3. The series is classed as cell-based, human. The conditions noted are these: Homo sapiens, UMUC3, co-incubated 48 h, read-out: Anti-proliferative activity (IC50 ± standard deviation) UM-UC-3. The essentials: as §2
In a further series the test system is T24 cells. The series is described as follows: CCK-8 anti-proliferative assay, T24. The conditions noted are these: Homo sapiens, T-24; Table 10; co-incubated 48 h; read-out: Anti-proliferative activity (IC50 ± standard deviation) T24. The series is classed as cell-based, human. The gist of the method: as §1
The next series has as its system 5637 cells. The series is described as follows: CCK-8 anti-proliferative assay, 5637. The series is classed as cell-based, human. The conditions noted are these: Homo sapiens. The essentials:
as §2

A further series concerns BxPC-3 cells. Nature of the series: CCK-8 anti-proliferative assay, BxPC-3. The series is classed as cell-based, human. The conditions noted are these: for IC50: Homo sapiens, BXPC-3, co-incubated 48 h, read-out: Anti-proliferative activity (IC50 ± standard deviation) BxPC-3. The gist of the method:
as §1

For another series, the system named is PANC-1 cells. The series is described as follows: CCK-8 anti-proliferative assay, PANC-1. The series is classed as cell-based, human. The conditions noted are these: for IC50: Homo sapiens, PANC-1, co-incubated 48 h, read-out: Anti-proliferative activity (IC50 ± standard deviation) PANC-1. The gist of the method: as §1
The test system of another series is HeLa cells. Nature of the series: CCK-8 anti-proliferative assay, HeLa. The format is cell-based, human. The gist of the method:
as §2

The subject of the next series is MCF-7 cells. Nature of the series: CCK-8 anti-proliferative assay, MCF-7. The series is classed as cell-based, human. The conditions noted are these: Homo sapiens, MCF7; Table 12; co-incubated 48 h; read-out: Anti-proliferative activity (IC50 ± standard deviation) MCF-7. The gist of the method:
as §2

Another series has as its system A549 cells. Nature of the series: CCK-8 anti-proliferative assay, A549. The format is cell-based, human. The essentials: as §2
The subject of another series is Hep G2 cells. The series is described as follows: CCK-8 anti-proliferative assay, Hep G2. The conditions noted are these: Homo sapiens, HepG2; Table 12; co-incubated 48 h; read-out: Anti-proliferative activity (IC50 ± standard deviation) Hep G2. The format is cell-based, human. The essentials:
as §1

Another series concerns SK-OV-3 cells. Nature of the series: CCK-8 anti-proliferative assay, SK-OV-3. The format is cell-based, human. The note with it: Homo sapiens, SK-OV-3, co-incubated 48 h, read-out: Anti-proliferative activity (IC50 ± standard deviation) SK-OV-3. The gist of the method:
as §2

Series [3] relates to immortalized ureteral epithelial cells (SV-HUC-1). Nature of the series: CCK-8 anti-proliferative assay, normal cells SV-HUC-1. The format is cell-based, human. The note with it: Homo sapiens, SV-HUC1, normal cells, co-incubated 48 h, read-out: Anti-proliferative activity (IC50 ± standard deviation) SV-HUC-1. The gist of the method:
as §2

Series [4] concerns embryonic lung fibroblasts (WI-38). The series is described as follows: CCK-8 anti-proliferative assay, normal cells WI-38. The format is cell-based, human. The conditions noted are these: Homo sapiens, WI-38, Table 13, co-incubated 48 h, read-out: Anti-proliferative activity (IC50 ± standard deviation) WI-38. The essentials: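 Absorbance at 450 nm after CCK-8 labelling (1–4 h, varying by cell line) gave inhibition relative to untreated control, from which IC50 values were derived. Compounds were applied at final concentrations of 1 to 30 μM in triplicate wells once cultures reached 70% confluency, with co-incubation for designated durations.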

Series [5] concerns UM-UC-3 cells. Nature of the series: Cell cycle analysis (PI staining, flow cytometry), UM-UC-3. The format is cell-based, human. On the procedure: Tumor cells (T24, UM-UC-3, 143B, BxPC-3) in logarithmic growth phase were inoculated into 70 mm culture dishes. After 70% confluency was reached, medium was replaced and treated with: compound 8-1j, ferroptosis inducer Erastin, or cell cycle blocker paclitaxel (PTX) for a specified duration. Post-incubation, cells were trypsinized, collected, centrifuged, and washed 2 times with pre-cooled phosphate-buffered saline (PBS). Pre-cooled 75% ethanol was added dropwise during vortexing for fixation at −20° C. overnight. After centrifugation (10 min), supernatant was discarded. Cells were rewashed with PBS and centrifuged. Following kit instructions (Beyotime, C1052, China), 0.5 mL staining buffer, 25 μL PI (propidium iodide) stain (20×), and 10 μL RNase A (50×) were mixed per sample. Cells were resuspended in PI staining solution and incubated at 37° C. in dark for 30 min (gentle shaking every 10 min). Samples were filtered through 200-mesh filters, transferred into a flow tube, and analyzed via BD FACSVerse flow cytometer. All experiments were conducted in 3 repeats. Compounds 8-2h and 8-2j were evaluated identically.

The conditions of series [6]: background; cited from earlier work. The source holds these as a separate data set.
The subject of series [7] is human pancreatic cancer BxPC-3. The series is described as follows: BxPC-3 tumor-bearing nude mouse model. The series is classed as in vivo, nude mice.

With `N#CC1(c2ccc(NC(=O)c3cccnc3NCc3ccncc3)cc2)CCCC1` [Apat, apatinib mesylate, reference compound], the IC50 with 143B cells (Table 7) is 28.4 ± 1.29 µM; in the series on MG-63 cells (Table 7) it was over 30 µM. In addition, the Tumor inhibition result with human osteosarcoma 143B is recorded as “weak tumor inhibition activity”.

With `COc1cc(OC)cc(N(CCNC(C)C)c2ccc3ncc(-c4cnn(C)c4)nc3c2)c1` [Erda, erdafitinib], the Water solubility result in series [1] is “poor water solubility”.

With `COc1cc2ncnc(NCc3cccc(NC(=O)Nc4ccc(C(C)(C)C)cc4)c3)c2cc1OCCCCCCN1CCC(CN2CCN(c3ccccn3)CC2)CC1` [Compound 8-2j, N-(3-(((7-methoxy-6-((6-(4-((4-(pyridin-2-yl)piperazin-1-yl)methyl)piperidin-1-yl)hexyl)oxy)quinazolin-4-yl)amino)methyl)phenyl)-N′-(4-tert-butylphenyl)urea], the IC50 stood at 3.42 ± 0.25 µM in the series with J82 cells (Table 10, co-incubated 48 h, read-out: Anti-proliferative activity (IC50 ± standard deviation) J82); 3.42 ± 0.25 µM in the series with J82 cells (read-out: IC50 values against J82 cells); 4.66 ± 0.29 µM in the series on UM-UC-3 cells [2] (Table 10); 3.32 ± 0.15 µM in the series with T24 cells; 2.97 ± 0.23 µM in the series with 5637 cells (Table 10, co-incubated 48 h, read-out: Anti-proliferative activity (IC50 ± standard deviation) 5637); 2.97 ± 0.23 µM in the series on 5637 cells (read-out: IC50 values against 5637 cells). In addition, the IC50 with 143B cells (Table 11) was 5.59 ± 0.49 µM; with MG-63 cells (Table 11), 4.64 ± 0.32 µM; in the series on BxPC-3 cells (Table 11), 6.15 ± 0.47 µM; in the series on PANC-1 cells (Table 11), 5.46 ± 0.31 µM; in the series with HeLa cells (Homo sapiens, HeLa, Table 12, co-incubated 48 h, read-out: Anti-proliferative activity (IC50 ± standard deviation) HeLa) it was 3.81 ± 0.25 µM; in the series on MCF-7 cells, 5.73 ± 0.59 µM. Further, the IC50 was determined as 3.09 ± 0.24 µM with A549 cells (Homo sapiens, A549, Table 13, co-incubated 48 h, read-out: Anti-proliferative activity (IC50 ± standard deviation) A549); 3.81 ± 0.24 µM in the series with Hep G2 cells; 4.61 ± 0.38 µM with SK-OV-3 cells (Table 12); 8.91 ± 0.72 µM in series [3] (Table 13); 8.79 ± 0.42 µM in [4]. Besides, the “Sensitivity of BxPC-3 / anti-proliferative activity against BxPC-3, in words” value with BxPC-3 cells is “heightened sensitivity”. Besides, in the series with PANC-1 cells, the “Sensitivity of PANC-1, in words” value is given as “heightened sensitivity”. In addition, the “Sensitivity of HeLa, in words” value with HeLa cells was “sensitive”. The “Activity against A549 versus the 8-1 to 8-23 series, in words” value with A549 cells is “significantly enhanced activity against A549”. The “Effect of co-administration with PTX on cell cycle” value with UM-UC-3 cells [5] (UM-UC-3, with PTX) was “Synergistic effects”. Moreover, in the series on UM-UC-3 cells [5] (UM-UC-3 cells (FIG. 45)), the “Cell cycle arrest phase” value is “arrest cell cycle at G2/M phase”.

For `CNC(=O)c1cc(Oc2ccc(NC(=O)Nc3ccc(Cl)c(C(F)(F)F)c3)cc2)ccn1` [Sora, sorafenib, reference compound], the IC50 in the series with UM-UC-3 cells [2] (Table 6) was found to be 14.3 ± 1.51 µM; in the series on 143B cells (Table 7), 22.7 ± 1.59 µM; with MG-63 cells (Table 7) it was 27.2 ± 1.89 µM; in the series on BxPC-3 cells (Table 7), 13.4 ± 1.27 µM; in the series on PANC-1 cells (Table 7), 8.13 ± 0.56 µM; in the series with SK-OV-3 cells (Table 9), 13.8 ± 0.78 µM. The IC50 in series [3] (Table 9) stood at 10.8 ± 0.54 µM. Moreover, the “Sensitivity of BxPC-3 / anti-proliferative activity against BxPC-3, in words” value in the series on BxPC-3 cells is “weak anti-proliferative activity”. Further, the Water solubility entry in series [1] is “poor aqueous solubility”. In addition, the Elimination/metabolism entry in series [6] is reported as “rapid elimination/metabolism”. In [6], the Oral bioavailability result is “low oral bioavailability”.

Take `Nc1ccn([C@@H]2O[C@H](CO)[C@@H](O)C2(F)F)c(=O)n1` [Gem, gemcitabine, reference compound]: in series [7] (24 mg/kg oral gavage), the “Mice manifesting anorexia and emaciation after 4 doses” value was 50%. Moreover, in series [7] (24 mg/kg oral gavage, n=6), the “Nude mice that died within 16 d” value was 3 of 6. For the same compound, the Toxicity observations entry in [7] (oral gavage, gemcitabine 24 mg/kg, 8-2h 12, 24, 36 mg/kg) is “significant gastrointestinal reactions”.

Broadly, the IC50 is the concentration that gives 50% inhibition.
